Laboratory results reported in patent publication US12344826B2, “Apparatus and methods for in vitro preclinical human trials” (THE GEORGE WASHINGTON UNIVERSITY, A CONGRESSIONALLY …, priority 2017, dated 2025).

Columns and labels:
[1] = system: action potential (AP) morphology; details: blebbistatin 10 μM used to immobilize tissue; cited from earlier work
human cardiac slices = experiment: Acute vs chronic phenylephrine in cultured human cardiac slices, electrophysiology by optical mapping; assay type: cell-based; details: 3 μM phenylephrine, acute application vs slices cultured 24 hours in drug medium
Protocol: Utilizing cultured slices and an adult dosage of phenylephrine, a widely used selective α1-adrenergic receptor agonist, a model to study chronic drug effects in human cardiac slices is developed. Slice electrophysiology was first acutely measured using optical mapping after application of 3 μM phenylephrine.

SMILES	effects in action potential (AP) morphology [1]	Two electrophysiology parameters, acute vs chronic stimulation modes (human cardiac slices)
Cc1ccc2c(c1)C(=O)C1(O)CCN(c3ccccc3)C1=N2 (centres unmarked) [blebbistatin]	no significant effects	
CNC[C@H](O)c1cccc(O)c1 [phenylephrine]		substantial difference
